Entries after “also recorded” stand apart in the source; their conditions may differ.
Key:
mitoNEET [1] = target: T1, mitoNEET (Homo sapiens, UniProt Q9NZ45); assay: Competitive spectrophotometric assay of mitoNEET⋅PLP complex formation; format: biochemical; conditions: for Effect on mitoNEET⋅PLP complex formation: signal at λ=380 nm (unbound PLP) with increasing compound concentration
T1 sequence (Q9NZ45 33-108 limits assumed): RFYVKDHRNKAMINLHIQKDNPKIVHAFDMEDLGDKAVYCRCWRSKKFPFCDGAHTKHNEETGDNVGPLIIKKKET

PLP⋅mitoNEET complex = target: T2, PLP⋅mitoNEET complex (Homo sapiens, UniProt Q9NZ45); assay: Reaction of candidate amino acid substrates with the PLP⋅mitoNEET complex, followed by spectrophotometry; format: biochemical; conditions: internal aldimine at λ=410 nm, signal at λ=330 nm, over 5000 sec
T2 sequence (Q9NZ45 33-108 limits assumed): T1 sequence (Q9NZ45 33-108 limits assumed)
Text: After PLP binding to the protein, the next step in many PLP-catalyzed enzymatic reactions is the formation of an external aldimine with one of several amino acid substrate such as cysteine, serine, alanine, or aspartate. Subsequently, an amazing diversity of chemistry can occur using this versatile coenzyme including transamination, racemization, and α,β-elimination. L-cysteine was selected as a first candidate substrate considering the previously shown reactivity of mitoNEET cysteine residues in the formation of mixed disulfide bonds. L-cysteine (0.5 mM) was added to the PLP⋅mitoNEET complex and the reaction was followed by spectrophotometry over 5000 sec.

mitoNEET [2] = target: T1, mitoNEET; assay: Spectroscopic kinetics of modification of mitoNEET by PLP; format: biochemical; conditions: in contrast to PLP; data not shown
Text: The initial discovery was made that CISD proteins bind PLP at a specific lysine residue that is in close proximity to the [2Fe-2S] cluster. PLP modifies the active site lysine residue of PLP-dependent enzymes forming the internal aldimine. In mitoNEET, PLP selectively modifies Lys55. While Lys55 was hypothesized to play a role in the reduction potential and stability of the [2Fe-2S] cluster in mitoNEET, its role as the binding site of PLP is novel to this work. MitoNEET was previously not known or classified as a PLP-dependent enzyme. Referring to FIG. 2, the formation of the mitoNEET⋅PLP and NAF-1⋅PLP complexes can be followed spectroscopically by the accumulation of a signal at λ=435 nm which is consistent with the ketoenamine tautomer and the attenuation of the signal at λ=380 nm which signifies the free PLP molecule. Concurrently with the increase of signal at λ=435 nm, an increase at λ=280 nm is also observed, but the chemical species contributing to this signal is currently unknown. In contrast to PLP, no reactivity of mitoNEET towards the non-phosphorylated pyridoxal (data not shown) was observed. […] An analogous lysine (Lys78) on NAF-1 is the analogous site for that protein.

mitoNEET [3] = target: T3, mitoNEET (Homo sapiens, UniProt Q9NZ45); assay: Proteomic analysis of mitoNEET lysine residues modified by PLP; format: biochemical; conditions: 2.0 molar equivalents of PLP, 20 minutes, PBS pH 7.5
T3 construct: Considering the presence of ten lysine residues in the soluble portion of mitoNEET
T3 sequence (Q9NZ45 32-108 limits assumed): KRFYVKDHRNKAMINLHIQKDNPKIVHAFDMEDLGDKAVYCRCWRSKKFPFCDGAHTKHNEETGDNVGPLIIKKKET
Experimental: Considering the presence of ten lysine residues in the soluble portion of mitoNEET, non-specific binding of PLP was a concern (PDB code 3EW0). Therefore, mitoNEET was treated with 2.0 molar equivalents of PLP over 20 minutes in phosphate buffered saline (PBS) at pH 7.5 and the reacted protein was analyzed by proteomics. […] Next, the product(s) were degraded by tryptic digest, separated by liquid chromatography, analyzed by tandem mass spectrometry, and the data deconvoluted by proteomic analysis (courtesy of Indiana University Medical School Proteomics Core).

mitoNEET [4] = target: T1, mitoNEET; assay: Thermal shift analysis (SYPRO Orange) of mitoNEET; format: binding; conditions: changing concentrations of nucleotide

For `NS(=O)(=O)c1cc(C(=O)O)c(NCc2ccco2)cc1Cl` [furosemide], the “Formation of mitoNEET⋅PLP complex after pre-treatment” value (mitoNEET [1]; signal at 435 nm, pre-treatment with compound) was “lack of formation of mitoNEET⋅PLP complex”, the “Effect on mitoNEET⋅PLP complex formation” value (mitoNEET [1]) was “competitive binding; also recorded: prohibits the mitoNEET⋅PLP complex formation” and the “Effect on mitoNEET⋅PLP complex formation” value (mitoNEET [1]; listed as Furosemide) was “block the formation of the mitoNEET⋅PLP complex in a concentration dependent manner”.
In the case of `N[C@@H](CS)C(=O)O` [L-cysteine], the “Reaction with the PLP⋅mitoNEET complex” value (PLP⋅mitoNEET complex) is reported as “degradation of the internal aldimine”.
With `N[C@@H](CO)C(=O)O` [L-serine] the “Reaction with the PLP⋅mitoNEET complex” value (PLP⋅mitoNEET complex) was “did not react”.
In the case of `N[C@H](CS)C(=O)O` [D-cysteine], the “Reaction with the PLP⋅mitoNEET complex” value (PLP⋅mitoNEET complex) is reported as “also reacts with the PLP⋅mitoNEET complex (albeit at a slower rate)”.
With `Cc1ncc(CO)c(C=O)c1O` [pyridoxal] the “Reactivity of mitoNEET towards compound” value (mitoNEET [2]) was “no reactivity”.
With `N[C@@H](COP(=O)(O)O)C(=O)O` [L-phosphoserine] the “Reaction with the PLP⋅mitoNEET complex” value (PLP⋅mitoNEET complex) was “did not react”.
`Cc1ncc(COP(=O)(O)O)c(C=O)c1O` [PLP, pyridoxal-5′-phosphate] was tested, and the “Percent Modified, lysine residue position 55” value (mitoNEET [3]) was 48.1%, the “Percent Modified, lysine residue position 68” value (mitoNEET [3]) was 7.6% and the “Percent Modified, lysine residue position 79” value (mitoNEET [3]) was 6.1%. The “Percent Modified, lysine residue position 89” value (mitoNEET [3]) was 2.5% and the “Percent Modified, lysine residue position 104” value (mitoNEET [3]) was 1.5%.
`Nc1ncnc2c1ncn2[C@@H]1O[C@H](COP(=O)(O)O)[C@@H](O)[C@H]1O` [AMP, adenosine monophosphate] was tested, and the “Effect on mitoNEET⋅PLP complex formation” value (mitoNEET [1]) was “no binding at Lys55; also recorded: does not correspond with an increase in the signal at λ=380 nm” and the “Effect on mitoNEET thermal stability” value (mitoNEET [4]) was “do not significantly affect the thermal shift profile”.
For `Nc1ncnc2c1ncn2[C@@H]1O[C@H](COP(=O)(O)OP(=O)(O)O)[C@@H](O)[C@H]1O` [ADP, adenosine diphosphate], the “Effect on mitoNEET thermal stability” value (mitoNEET [4]) was “do not significantly affect the thermal shift profile”.

From patent publication US20190388381A1, “METHODS OF INHIBITING CISD PROTEIN-PLP COMPLEX FORMATION” (priority 2018, published 2019)
